According to US20090298805A1, “TOPICAL PYRITHIONE COMPOSITIONS AND METHODS FOR TREATMENT OF NAIL FUNGUS” (priority 2008, published 2009):

Assays:
Trichophyton rubrum = test: Microbiology efficacy test, formulations applied to paper disks, zone of inhibition; type: cell-based; conditions: T. rubrum; 50 microliters on 1/2 inch paper disk, air dried; Potato Dextrose Agar; average results
Description: (§1) Each test formulation (50 microliters) was pipetted onto sterile ½ inch paper disks and was allowed to air dry. Spore suspensions of Trichophyton mentagrophytes and Trichophyton rubrum, were made using standard microbiological techniques. The resulting suspensions contained approximately 10,000,000 spores per milliliter. Sterile swabs were used to distribute the spore suspensions over the surface of Potato Dextrose Agar plates and one sample disk was placed in the center of each plate.

[1] = test system: Trichophyton mentagrophytes; test: as above; type: cell-based; conditions: T. mentagrophytes; 50 microliters on 1/2 inch paper disk, air dried; Potato Dextrose Agar; average results
Description: as §1

T. mentagrophytes = test: Formulations applied to artificial nail (IMS VITRO-NAILS), zone of inhibition; type: cell-based, Trichophyton mentagrophytes
Description: Each test formulation (50 microliters) was pipetted onto sterile ½ inch paper disks and was allowed to air dry. Spore suspensions of Trichophyton mentagrophytes and Trichophyton rubrum, were made using standard microbiological techniques. The resulting suspensions contained approximately 10,000,000 spores per milliliter. Sterile swabs were used to distribute the spore suspensions over the surface of Potato Dextrose Agar plates and one sample disk was placed in the center of each plate. As an additional test, a synthetic nail substrate, IMS VITRO-NAILS, was used to simulate permeation of the active through a human nail. This material is reported to have the wetting properties, thickness and flexibility of human nails. This experiment was conducted in the same manner as first experiment above, except that the formulations were pipetted onto ¾-1 inch squares of VITRO-NAILS and either allowed to dry for 2 days before testing or place directly on the inoculated agar plates while wet.

SMILES: Cc1cc(C2CCCCC2)n(O)c(=O)c1 [Ciclopirox]
- Zone of Inhibition (Trichophyton rubrum): 19.0 mm
- Zone of Inhibition [1]: 16.0 mm
- Zone of Inhibition, Tested Dry (T. mentagrophytes; allowed to dry for 2 days before testing): 8.75 mm
- Zone of Inhibition, Tested Wet (T. mentagrophytes; placed directly on inoculated agar plates while wet): 9 mm
